Data as given in patent publication US7910746B2, “Haloalkyl carboxamides” (Bayer CropScience AG, priority 2004, dated 2011).

System: not listed separately
Assay: log P by HPLC on reverse phase column (C18), acid range
Type: physicochemical
Conditions: pH 2.3, HPLC C18, 43° C.
Method: The specified log P values are determined by HPLC on a reverse phase column (C18) in accordance with EEC Directive 79/831 Annex V.A8. Temperature: 43° C. Eluents for the measurement in the acid range (pH 2.3): 0.1% aqueous phosphoric acid, acetonitrile; linearer gradient of 10% acetonitrile to 90% acetonitrile. Calibration is performed with unbranched alkyl-2-ones (with 3 to 16 carbon atoms) with known log P values (determination of the log P values based on retention times by linear interpolation between two sequential alkyl ketones).

Row | chromatographic logP | SMILES
1 | 4.08 | CC(CCc1cc(Cl)ccc1NC(=O)c1ccccc1C(F)(F)F)C(F)(F)F (stereo not drawn) [Example 1, N-[4-chloro-2-(4,4,4-trifluoro-3-methylbutyl)-phenyl]-2-trifluoromethylbenzamide]
2 | 2.93 | CC(CCc1ccccc1NC(=O)c1cn(C)nc1C(F)F)C(F)(F)F (stereo not drawn) [Example 2, 3-difluoromethyl-1-methyl-1H-pyrazole-4-carboxyic acid, [2-(4,4,4-trifluoro-3-methylbutyl)-phenyl]-amide]

System: Sphaerotheca fuliginea
Assay: Sphaerotheca test (cucumber)/protective
Type: in vivo
Conditions: protective, application rate 100 g/ha, evaluation seven days after inoculation
Method: Sphaerotheca Test (Cucumber)/Protective Solvent: • 24.5 parts by weight acetone • 24.5 parts by weight dimethyl acetamide Emulsifier: 1 part by weight alkyl aryl polyglycol ether To produce an appropriate active ingredient preparation, one part by weight of the active substance is mixed with the specified quantities of solvent and emulsifying agent, and the concentrate is diluted with water to the desired concentration. Young plants are sprayed with the active ingredient preparation at the specified application rate to test the effectiveness of protection. After the sprayed coating has dried, the plants are inoculated with an aqueous spore suspension of Sphaerotheca fuliginea. Then the plants are placed in the greenhouse at about 23° C. with relative humidity of about 70%. The evaluation is performed seven days after the inoculation. A degree of effectiveness rating of 0% corresponds to the control, with 100% indicating no infestation observed.

Row | SMILES | Degree of effectiveness in %
3 | CCC(Cl)CC(C)c1ccccc1NC(=O)c1c(C)nn(C)c1F (stereo not drawn) [drawing 80] | 95%
4 | CCC(Cl)CC(C)c1ccccc1NC(=O)c1cn(C)nc1C(F)F (stereo not drawn) [drawing 81] | 100%
5 | Cc1nn(C)c(F)c1C(=O)Nc1ccccc1CCC(C)C(F)(F)F (stereo not drawn) [drawing 82] | 100%
6 | CC(CCc1ccccc1NC(=O)c1cn(C)nc1C(F)F)C(F)(F)F (stereo not drawn) [drawing 83] | 98%

System: Venturia inaequalis
Assay: Venturia test (apple)/protective
Type: in vivo
Conditions: protective, application rate 100 g/ha, evaluation ten days after inoculation
Method: Venturia Test (Apple)/Protective Solvent: • 24.5 parts by weight acetone • 24.5 parts by weight dimethyl acetamide Emulsifier: 1 part by weight alkyl aryl polyglycol ether To produce an appropriate active ingredient preparation, one part by weight of the active substance is mixed with the specified quantities of solvent and emulsifying agent, and the concentrate is diluted with water to the desired concentration. Young plants are sprayed with the active ingredient preparation at the specified application rate to test the effectiveness of protection. After the sprayed coating has dried, the plants are inoculated with an aqueous conidia suspension of the apple scab pathogen Venturia inaequalis and are then kept in an incubator at 20° C. and 100% relatively humidity for one day. Then the plants are placed in the greenhouse at about 21° C. with relative humidity of about 90%. The evaluation is performed ten days after the inoculation. A degree of effectiveness rating of 0% corresponds to the control, with 100% indicating no infestation observed.

Row | SMILES | Degree of effectiveness in %
7 | CC(CCc1cc(Cl)ccc1NC(=O)c1cn(C)nc1C(F)F)C(F)(F)F (stereo not drawn) | 93%
8 | CCC(Cl)CC(C)c1ccccc1NC(=O)c1c(C)nn(C)c1F (stereo not drawn) [drawing 85] | 100%
9 | CCC(Cl)CC(C)c1ccccc1NC(=O)c1cn(C)nc1C(F)F (stereo not drawn) [drawing 86] | 100%
10 | CC(CCc1ccccc1NC(=O)c1ccccc1I)C(F)(F)F (stereo not drawn) [drawing 87] | 94%
11 | Cc1nn(C)c(F)c1C(=O)Nc1ccccc1CCC(C)C(F)(F)F (stereo not drawn) [drawing 88] | 94%
12 | CC(CCc1ccccc1NC(=O)c1cn(C)nc1C(F)F)C(F)(F)F (stereo not drawn) [drawing 89] | 97%

System: Botrytis cinerea
Assay: Botrytis test (bean)/protective
Type: in vivo
Conditions: protective, application rate 500 g/ha, evaluation two days after inoculation
Method: Botrytis Test (Bean)/Protective Solvent: • 24.5 parts by weight acetone • 24.5 parts by weight dimethyl acetamide Emulsifier: 1 part by weight alkyl aryl polyglycol ether To produce an appropriate active ingredient preparation, one part by weight of the active substance is mixed with the specified quantities of solvent and emulsifying agent, and the concentrate is diluted with water to the desired concentration. Young plants are sprayed with the active ingredient preparation at the specified application rate to test the effectiveness of protection. After the sprayed coating has dried, two small pieces of agar with cultured Botrytis cinerea are placed on each leaf. The inoculated plants are placed in a darkened chamber at about 20° C. and 100% relatively humidity. Two days after the inoculation, the size of the infestation spots on the leaves is evaluated. A degree of effectiveness rating of 0% corresponds to the control, with 100% indicating no infestation observed.

Row | SMILES | Degree of effectiveness in %
13 | CCC(Cl)CC(C)c1ccccc1NC(=O)c1c(C)nn(C)c1F (stereo not drawn) [drawing 90] | 82%
14 | CCC(Cl)CC(C)c1ccccc1NC(=O)c1cn(C)nc1C(F)F (stereo not drawn) [drawing 91] | 100%
15 | CC(CCc1ccccc1NC(=O)c1cn(C)nc1C(F)F)C(F)(F)F (stereo not drawn) [drawing 92] | 99%

System: Puccinia recondita
Assay: Puccinia test (wheat)/protective
Type: in vivo
Conditions: protective, application rate 500 g/ha, evaluation ten days after inoculation
Method: Puccinia Test (Wheat)/Protective Solvent: 50 parts by weight N,N-dimethyl acetamide Emulsifier: 1 part by weight alkyl aryl polyglycol ether To produce an appropriate active ingredient preparation, one part by weight of the active substance is mixed with the specified quantities of solvent and emulsifying agent, and the concentrate is diluted with water to the desired concentration. Young plants are sprayed with the active ingredient preparation at the specified application rate to test the effectiveness of protection. After the sprayed coating has dried, the plants are sprayed with a conidia suspension of Puccinia recondita. The plants are kept in an incubator at 20° C. and 100% relatively humidity for 48 hours. Then the plants are placed in a greenhouse at a temperature of about 20° C. and a relatively humidity of 80%, in order to promote the development of rust spots. The evaluation is performed ten days after the inoculation. A degree of effectiveness rating of 0% corresponds to the control, with 100% indicating no infestation observed.

Row | SMILES | Degree of effectiveness in %
16 | CCC(Cl)CC(C)c1ccccc1NC(=O)c1cn(C)nc1C(F)F (stereo not drawn) [drawing 93] | 100%
17 | CC(CCc1ccccc1NC(=O)c1ccccc1I)C(F)(F)F (stereo not drawn) [drawing 94] | 100%
18 | CC(CCc1ccccc1NC(=O)c1cn(C)nc1C(F)F)C(F)(F)F (stereo not drawn) [drawing 95] | 100%

System: Alternaria solani
Assay: Alternaria test (tomato)/protective
Type: in vivo
Conditions: protective, application rate 750 g/ha, evaluation seven days after inoculation
Method: Alternaria Test (Tomato)/Protective Solvent: 49 parts by weight N,N-dimethyl formamide Emulsifier: 1 part by weight alkyl aryl polyglycol ether To produce an appropriate active ingredient preparation, one part by weight of the active substance is mixed with the specified quantities of solvent and emulsifying agent, and the concentrate is diluted with water to the desired concentration. Young tomato plants are sprayed with the active ingredient preparation at the specified application rate to test the effectiveness of protection. One day after treatment, the plants are inoculated with a spore suspension of Alternaria solani and are kept for 24 hours at 100% relatively humidity and 20° C. Subsequently, the plants are kept at 96% relatively humidity and a temperature of 20° C. The evaluation is performed seven days after the inoculation. A degree of effectiveness rating of 0% corresponds to the control, with 100% indicating no infestation observed.

Row | SMILES | Degree of effectiveness in %
19 | Cc1nn(C)c(F)c1C(=O)Nc1ccc(Cl)cc1CCC(C)C(F)(F)F (stereo not drawn) | 90%
20 | CCC(Cl)CC(C)c1ccccc1NC(=O)c1c(C)nn(C)c1F (stereo not drawn) [drawing 97] | 100%
21 | CCC(Cl)CC(C)c1ccccc1NC(=O)c1cn(C)nc1C(F)F (stereo not drawn) [drawing 98] | 95%
